We go through 2 substances from US20090076571A1, “MRI-Guided Photodynamic Therapy For Cancer” (priority 2004, published 2009).

The nature of series [1]: T1 relaxivity of polymer complexes. It counts as physicochemical. The conditions noted are these: Siemens Trio 3T scanner, inversion recovery sequence.
Series [2] deals with MDA-MB-231 human breast carcinoma xenograft tumor. The series can be described thus: Contrast-enhanced MR imaging of tumor-bearing mice after injection of polymer conjugates. It counts as in vivo, female athymic nu/nu mice. The conditions noted are these: for Contrast in all tissues including tumor, heart and liver compared to pre-contrast: 5 minutes post injection; for Increase in signal intensity of tumor as compared to precontrast: 2 hours post injection, semi-quantitative evaluation, 6 mice per group. As to the method:
Female athymic nu/nu mice were purchased from NCI (Frederick, Md.) at the age of 6 weeks. To generate tumor models, each mouse was injected subcutaneously with 2×10^6 MB-231 cells in 100 μl of culture media mixed with 100 μl of BD MATRIGEL, a solubulized basement membrane preparation extracted from EHS mouse sarcoma, in the flank region. Magnetic resonance imaging and photodynamic therapy studies were carried out at an average tumor size of 25-40 mm^3.
MR imaging was performed on a Siemens Trio 3T MRI scanner. The animals were anesthetized by intra-peritoneal or intra-muscular injection of the anesthetic (mixture of ketamine—80 mg/kg body weight and xylazine—12 mg/kg body weight).
For imaging purposes, the animals were placed in the human wrist coil and pre-contrast images (prior to the injection of the polymer chelate system containing the drug and the contrast agent) were obtained using a 3D FLASH (Fast Low Angle Shot) sequence.
After obtaining the pre-contrast images, the macromolecular complexes were injected at a dose of 0.09 mmol Gd/kg body weight and 6 mg/kg of Mce6 by tail vein injection. Image acquisition was set at 5, 30, 60, 120 minutes and 24 hours post injection. Animal imaging was performed using the multi-phase T1 weighted sequence. The repetition time was about 6 milliseconds to 2 milliseconds, respectively; consistent with the 4 to 8 cm FIV (field of view) and 0.5 mm slice thickness chosen for each animal. The imaging volume was acquired before injection and in rapid succession after injection. Each acquisition required about 30 seconds.
MR imaging. […] FIG. 7 and FIG. 8 show 2D coronal MR images through tumor and heart respectively. The upper panel of FIG. 7 represents mice with Pol1 and the lower panel upper represents mice with Pol2. The upper panel of FIG. 8 represents mice with Pol1 and the lower panel represents mice with Pol2. […] The higher signal in heart may be due to high molecular weight fractions of the control polymer.
Increase in Signal intensity of tumor for both groups as compared to precontrast at 2 hours is 100%. Signal intensity at 18 hours post injection was at least 30% higher than precontrast for both Pol1 and Pol2. Quantitative evaluation of signal intensities using IDL was performed to corroborate the data obtained from semi-quantitative analysis.

Series [3] has the same test system. The series can be described thus: Efficiency of photodynamic therapy (650 nm laser irradiation of tumor). The conditions noted are these: for Tumor volume after photodynamic therapy: FIG. 11, irradiation 650 nm, 6 mice per group. It counts as in vivo, female athymic nu/nu mice. On the procedure:
Molecular weight determination was carried out by Size Exclusion Chromatography (SEC) on an AKTA FPLC system with a Superdex 200/Superose 6 column equipped with UV and refractive index detectors (Amersham Biosciences Corp., Piscataway, N.J.). The FPLC columns were calibrated with poly[N-(2-hydroxypropyl)methacrylamide] standards. ^1H NMR spectra were acquired on a Varian INOVA 400 at 400 MHz at 25° C. ESI-MS spectra were acquired on a PE Sciex API III Mass Spectrometer at the University of Utah Mass Spectrometry and Proteonomic Core Facility. Meso chlorin content was determined on Cary Win UV-Vis spectrometer. Gd content was determined using Inductively Coupled argon Plasma-Optical Emission Spectrometer (ICP-OES) (Perkin Elmer, Norwalk, Conn., Optima 3100XL). T1 relaxivity measurements for the final conjugates were acquired on a Siemens Trio 3T MRI scanner using standard inversion recovery sequence. Photodynamic therapy was carried out via Diode Odyssey laser (650nm) (CAO Group, UT).
Female athymic nu/nu mice were purchased from NCI (Frederick, Md.) at the age of 6 weeks. […] Magnetic resonance imaging and photodynamic therapy studies were carried out at an average tumor size of 25-40 mm^3.
Then the tumor was irradiated, 2 hours and 18 hours post-injection, using light of wavelength 650 nm (Denlaser) with an input of 220 mW/cm^2 energy and 0.5 mm aperture for irradiation. The time of irradiation was 15 minutes. The mice were then kept away from direct light to avoid extraneous irradiation and the reduction in tumor volume was measured.
Efficiency of Photodynamic therapy.

Gd (III)-DOTA-linker-PLGA [Pol2]: the Relaxivity in series [1] was 8.33 mM − 1 sec − 1. For the same substance, in series [2], the “Contrast in all tissues including tumor, heart and liver compared to pre-contrast” value is recorded as “increased contrast”; the “Increase in signal intensity of tumor as compared to precontrast” value was 100%. In addition, in series [3], the “Tumor volume after photodynamic therapy” value is reported as “rapid increase in tumors”. The “Mice with tumors larger than 10% of the body weight, sacrificed” value in series [3] (out of 6 mice in the group) turned out to be 5.

Regarding Gd (III)-DOTA-linker-PLGA-Mce6 [Pol1], the Relaxivity in series [1] was found to be 8.46 mM − 1 sec − 1. In series [2], the “Contrast in all tissues including tumor, heart and liver compared to pre-contrast” value is “increased contrast”; the “Increase in signal intensity of tumor as compared to precontrast” value was found to be 100%. The “Mice surviving for the time period of the experiment” value in series [3] (90 days, group of 6 mice) is 4 out of 6. Further, the “Tumor volume after photodynamic therapy” value in series [3] is “reduction in tumor volume or slowed tumor growth”.
